Like-named read-outs stand apart in the source and are kept apart here. Starred links: 1 amine or outer side, 2 acyl side, 3 side chain; linkers in the order of their positions; H or OH if unused. Positions of bridges follow the written chain, without caps; N, C: chain ends. Non-standard residues stand in square brackets, D forms with d. Residues, ends and D or L forms follow the SMILES beside them. Trp(5-OH) = N[C@@H](Cc1c[nH]c2ccc(O)cc12)C(=O)O; NMePhe(4-F) = CN[C@@H](Cc1ccc(F)cc1)C(=O)O; isoSer(2S) = O=C([C@@H](O)CN[*:1])[*:2]; NMehPhe = CN[C@@H](CCc1ccccc1)C(=O)O; NMeAhp(2) = CCCCC[C@H](NC)C(=O)O; NMeE = CN[C@@H](CCC(=O)O)C(=O)O; Aad = N[C@@H](CCCC(=O)O)C(=O)O; Gly(cPr) = N[C@H](C(=O)O)C1CC1; NMeK = CN[C@@H](CCCCN)C(=O)O; NMeDap = CN[C@@H](CN)C(=O)O; NMeC = CN[C@@H](CS)C(=O)O; NMeS = CN[C@@H](CO)C(=O)O; Dap = NC[C@H](N)C(=O)O; X5 = O=C(C[*:2])[*:1]

Format in all cases: binding
Experiment [1] concerns the target T1, human HER2 (23-652) (Homo sapiens, UniProt P04626). In words: Surface plasmon resonance (SPR) for assessment of peptide affinity, human HER2. On the set-up: towards human HER2 (23-652) and mouse HER2 (23-653); made in house. Conditions: SPR, human HER2 extracellular domain, 25° C., 1:1 binding model; read-out: huHER2-SPR-ONC KD. The procedure, abridged: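 Binding kinetics fitted from sensorgrams with 280 s peptide association then 3000 s dissociation (30 uL/min), using HER2 (23-652) either directly immobilized (SA/CM5) or anti-Fc-captured; 3 M magnesium chloride used for regeneration.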

For experiment [2], the target named is T2, mouse HER2 (23-653) (Mus musculus, UniProt P70424). In words: TR-FRET competition assay for peptide potency, mouse HER2. Also on record: mouse HER2 (23-653) using a Cy5 labeled peptide as a probe; made in house; host or cells: mammalian cells. Conditions: TR-FRET competition with Cy5 labeled peptide probe, 0.1 nM mouse HER2, 24 h incubation; read-out: moHER2 TR-FRET IC50.

The target in experiment [3] is T1, human HER2 (23-652). In words: TR-FRET competition assay for peptide potency, human HER2. On the set-up: towards human HER2 (23-652) and mouse HER2 (23-653); made in house; host or cells: mammalian cells.
Experiment [4] addresses T2, mouse HER2 (23-653). In words: Surface plasmon resonance (SPR) for assessment of peptide affinity, mouse HER2. Conditions: SPR, mouse HER2 extracellular domain, 25° C., 1:1 binding model; read-out: moHER2-SPR-ONC KD. Also on record: mouse HER2 (23-653) using a Cy5 labeled peptide as a probe; made in house. The source says: Each protein was immobilized either onto a SA sensorchip (Cytiva, BR-1005-31) or CM5 sensorchip (Cytiva, BR-1005-30) to a density of 800-2000 RU.

[5] abbreviates: TR-FRET competition with Cy5 labeled peptide probe, 0.1 nM human HER2, 24 h incubation, read-out: huHER2 TR-FRET IC50.

With `CCCCC[C@@H](C(N)=O)N(C)C(=O)[C@@H]1CNC(=O)CCC[C@H](NC(C)=O)C(=O)N[C@@H](Cc2ccc(O)cc2)C(=O)N[C@@H](CO)C(=O)N(C)[C@@H](CCc2ccccc2)C(=O)N(C)[C@@H](CCCCNC(C)=O)C(=O)N[C@@H](Cc2c[nH]c3ccc(O)cc23)C(=O)N[C@@H](Cc2c[nH]c3ccccc23)C(=O)N[C@@H](C2CC2)C(=O)N1C` [Example A15, (3S,6S,9S,12S,15S,18S,21S,24S,27S)-9-((1H-indol-3-yl)methyl)-27-acetamido-15-(4-acetamidobutyl)-N-((S)-1-amino-1-oxoheptan-2-yl)-6-cyclopropyl-12-((5-hydroxy-1H-indol-3-yl)methyl)-24-(4-hydroxybenzyl)-21-(hydroxymethyl)-N,4,16,19-tetramethyl-5,8,11,14,17,20,23,26,31-nonaoxo-18-phenethyl-1,4,7,10,13,16,19,22,25-nonaazacyclohentriacontane-3-carboxamide] (Ac-[Aad]YS[NMehPhe][NMeK](Ac)[Trp(5-OH)]W[Gly(cPr)][NMeDap][NMeAhp(2)]-NH2; lactam 1-9), the dissociation constant Kd on human HER2 (23-652) [1] and on mouse HER2 (23-653) [4] was 24 nM each time. Further, the IC50 at mouse HER2 (23-653) [2] was determined as 55 nM; at human HER2 (23-652) [3] (read-out: huHER2 TR-FRET IC50), 27 nM.

Turning to `CC(=O)NCCCC[C@H]1C(=O)N[C@@H](Cc2c[nH]c3ccc(O)cc23)C(=O)N[C@@H](Cc2c[nH]c3ccccc23)C(=O)N[C@@H](C2CC2)C(=O)N(C)[C@H](C(=O)N(C)[C@@H](Cc2ccc(F)cc2)C(N)=O)CCC(=O)NC[C@H](O)C(=O)N[C@@H](Cc2ccc(O)cc2)C(=O)N[C@@H](CO)C(=O)N(C)[C@@H](CCc2ccccc2)C(=O)N1C` [Example A23, (3S,6S,9S,12S,15S,18S,21S,24S,30S)-6-((1H-indol-3-yl)methyl)-12-(4-acetamidobutyl)-N-((S)-1-amino-3-(4-fluorophenyl)-1-oxopropan-2-yl)-3-cyclopropyl-24-hydroxy-9-((5-hydroxy-1H-indol-3-yl)methyl)-21-(4-hydroxybenzyl)-18-(hydroxymethyl)-N,1,13,16-tetramethyl-2,5,8,11,14,17,20,23,27-nonaoxo-15-phenethyl-1,4,7,10,13,16,19,22,26-nonaazacyclotriacontane-30-carboxamide] ([isoSer(2S)]YS[NMehPhe][NMeK](Ac)[Trp(5-OH)]W[Gly(cPr)][NMeE][NMePhe(4-F)]-NH2; lactam N-9), the IC50 was found to be 5.5 nM on mouse HER2 (23-653) [2] and 3 nM on human HER2 (23-652) [3] (read-out: huHER2 TR-FRET IC50). The Kd on mouse HER2 (23-653) [4] is 2.7 nM.

Regarding `COCCOCCOCCOCCOCCOCCOCCOCCOCCOCCOCCOCCC(=O)N[C@H]1CCCC(=O)NC[C@@H](C(=O)N(C)[C@@H](Cc2ccc(F)cc2)C(=O)N[C@@H](CCCCNC(=O)CN2CCN(CC(=O)O)CCN(CC(=O)O)CCN(CC(=O)O)CC2)C(N)=O)N(C)C(=O)[C@H](C2CC2)NC(=O)[C@H](Cc2c[nH]c3ccccc23)NC(=O)[C@H](Cc2c[nH]c3ccc(O)cc23)NC(=O)[C@H](CCCCNC(C)=O)N(C)C(=O)[C@H](CCc2ccccc2)N(C)C(=O)[C@H](CO)NC(=O)[C@H](Cc2ccc(O)cc2)NC1=O` [Example C37], the figures for the IC50 on mouse HER2 (23-653) [2] and on human HER2 (23-652) [3] (setting [5]) were 0.4 nM and 0.1 nM, respectively. For the same molecule, the Kd at mouse HER2 (23-653) [4] is 0.3 nM.

Take `CC(=O)N[C@H]1CNC(=O)CSC[C@@H](C(=O)N(C)[C@@H](Cc2ccc(F)cc2)C(N)=O)N(C)C(=O)[C@H](C2CC2)NC(=O)[C@H](Cc2c[nH]c3ccccc23)NC(=O)[C@H](Cc2c[nH]c3ccc(O)cc23)NC(=O)[C@H](CO)N(C)C(=O)[C@H](CCc2ccccc2)N(C)C(=O)[C@H](CO)NC(=O)[C@H](Cc2ccc(O)cc2)NC1=O` [Example A50, (3R,6S,9S,12S,15S,18S,21S,24S,27S)-9-((1H-indol-3-yl)methyl)-27-acetamido-N—((S)-1-amino-3-(4-fluorophenyl)-1-oxopropan-2-yl)-6-cyclopropyl-12-((5-hydroxy-1H-indol-3-yl)methyl)-24-(4-hydroxybenzyl)-15,21-bis(hydroxymethyl)-N,4,16,19-tetramethyl-5,8,11,14,17,20,23,26,30-nonaoxo-18-phenethyl-1-thia-4,7,10,13,16,19,22,25,29-nonaazacyclohentriacontane-3-carboxamide] (Ac-[Dap]YS[NMehPhe][NMeS][Trp(5-OH)]W[Gly(cPr)][NMeC][NMePhe(4-F)]-NH2; linker 1-9 via X5): the dissociation constant (Kd) on human HER2 (23-652) [1] was found to be 117 nM; on mouse HER2 (23-653) [4], 122 nM. Also, on mouse HER2 (23-653) [2], the half-inhibitory concentration (IC50) amounted to 430 nM.

In the case of `CC(=O)NCCCC[C@H]1C(=O)N[C@@H](Cc2c[nH]c3ccc(O)cc23)C(=O)N[C@@H](Cc2c[nH]c3ccccc23)C(=O)N[C@@H](C2CC2)C(=O)N(C)[C@H](C(=O)N(C)[C@@H](Cc2ccc(F)cc2)C(=O)N[C@@H](CCCCNC(=O)CCC(C(=O)O)N2CCN(CC(=O)O)CCN(CC(=O)O)CC2)C(N)=O)CNC(=O)CCC[C@H](NC(C)=O)C(=O)N[C@@H](Cc2ccc(O)cc2)C(=O)N[C@@H](CO)C(=O)N(C)[C@@H](CCc2ccccc2)C(=O)N1C` (single isomer, unassigned) [Example C35], the Kd at human HER2 (23-652) [1] and on mouse HER2 (23-653) [4] was below 0.1 nM each time. Also, at human HER2 (23-652) [3] (setting [5]), the IC50 was below 0.1 nM.

As to `CC(=O)NCCCC[C@H]1C(=O)N[C@@H](Cc2c[nH]c3ccc(O)cc23)C(=O)N[C@@H](Cc2c[nH]c3ccccc23)C(=O)N[C@@H](C2CC2)C(=O)N(C)[C@H](C(=O)N(C)[C@@H](Cc2ccc(F)cc2)C(=O)N[C@@H](CCCCNC(=O)CN2CCN(CC(=O)O)CCN(CC(=O)O)CCN(CC(=O)O)CC2)C(N)=O)CNC(=O)CCC[C@H](NC(C)=O)C(=O)N[C@H](Cc2ccc(O)cc2)C(=O)N[C@H](CO)C(=O)N(C)[C@@H](CCc2ccccc2)C(=O)N1C` [Example C36], the dissociation constant (Kd) at human HER2 (23-652) [1] was 107 nM; on mouse HER2 (23-653) [4] it was 472 nM. In addition, the IC50 on mouse HER2 (23-653) [2] turned out to be 396 nM.

Take `CC(=O)NCCCC[C@H]1C(=O)N[C@@H](Cc2c[nH]c3ccc(O)cc23)C(=O)N[C@@H](Cc2c[nH]c3ccccc23)C(=O)N[C@@H]([C@H](C)O)C(=O)N(C)[C@H](C(=O)N(C)[C@@H](Cc2ccc(F)cc2)C(=O)N[C@@H](CCCCNC(=O)N2CCN(CC(=O)O)CC2)C(=O)N[C@@H](CCCCNC(=O)CN2CCN(CC(=O)O)CCN(CC(=O)O)CCN(CC(=O)O)CC2)C(N)=O)CNC(=O)CC[C@H](NC(C)=O)C(=O)N[C@@H](Cc2ccc(O)cc2)C(=O)N[C@@H](CO)C(=O)N(C)[C@@H](CCc2ccccc2)C(=O)N1C` [Example C24]: the concentration for half-maximal inhibition (IC50) at mouse HER2 (23-653) [2] was 13 nM; at human HER2 (23-652) [3] (setting [5]), 13 nM; on human HER2 (23-652) [3] (value in parentheses (**): recalculated after further repetition, read-out: huHER2 TR-FRET IC50, recalculated value achieved after further repetition), 11 nM. Moreover, the Kd on mouse HER2 (23-653) [4] was 9.3 nM.

Take `CC(=O)N[C@H]1CCC(=O)NC[C@@H](C(=O)N(C)[C@@H](Cc2ccc(F)cc2)C(N)=O)N(C)C(=O)[C@H](C2CC2)NC(=O)[C@H](Cc2c[nH]c3ccccc23)NC(=O)[C@H](Cc2c[nH]c3ccc(O)cc23)NC(=O)[C@H](CO)N(C)C(=O)[C@H](CCc2ccccc2)N(C)C(=O)[C@H](CO)NC(=O)[C@H](Cc2ccc(O)cc2)NC1=O` [Example A25, (3S,6S,9S,12S,15S,18S,21S,24S,27S)-9-((1H-indol-3-yl)methyl)-27-acetamido-N—((S)-1-amino-3-(4-fluorophenyl)-1-oxopropan-2-yl)-6-cyclopropyl-12-((5-hydroxy-1H-indol-3-yl)methyl)-24-(4-hydroxybenzyl)-15,21-bis(hydroxymethyl)-N,4,16,19-tetramethyl-5,8,11,14,17,20,23,26,30-nonaoxo-18-phenethyl-1,4,7,10,13,16,19,22,25-nonaazacyclotriacontane-3-carboxamide]: the concentration for half-maximal inhibition (IC50) at mouse HER2 (23-653) [2] turned out to be 162 nM; at human HER2 (23-652) [3] (read-out: huHER2 TR-FRET IC50) it was 82 nM. For the same molecule, the Kd on mouse HER2 (23-653) [4] is 93 nM.

Consider `CC(=O)NCCCC[C@H]1C(=O)N[C@@H](Cc2c[nH]c3ccc(O)cc23)C(=O)N[C@@H](Cc2c[nH]c3ccccc23)C(=O)N[C@@H](C2CC2)C(=O)N(C)[C@H](C(=O)N(C)[C@@H](Cc2ccc(F)cc2)C(N)=O)CSCC(=O)NC[C@H](NC(C)=O)C(=O)N[C@@H](Cc2ccc(O)cc2)C(=O)N[C@@H](CO)C(=O)N(C)[C@@H](CCc2ccccc2)C(=O)N1C` [Example A51, (3R,6S,9S,12S,15S,18S,21S,24S,27S)-9-((1H-indol-3-yl)methyl)-27-acetamido-15-(4-acetamidobutyl)-N-((S)-1-amino-3-(4-fluorophenyl)-1-oxopropan-2-y1)-6-cyclopropyl-12-((5-hydroxy-1H-indol-3-yl)methyl)-24-(4-hydroxybenzyl)-21-(hydroxymethyl)-N,4,16,19-tetramethyl-5,8,11,14,17,20,23,26,30-nonaoxo-18-phenethyl-1-thia-4,7,10,13,16,19,22,25,29-nonaazacyclohentriacontane-3-carboxamide] (Ac-[Dap]YS[NMehPhe][NMeK](Ac)[Trp(5-OH)]W[Gly(cPr)][NMeC][NMePhe(4-F)]-NH2; linker 1-9 via X5), for which the Kd is 7.3 nM at human HER2 (23-652) [1] and 10 nM at mouse HER2 (23-653) [4]. The IC50 on mouse HER2 (23-653) [2] amounted to 15 nM.

Source of the values: patent US20250332300A1 (priority 2024, published 2025).
